# Results taken from article PMC8957246, “Synthesis and diverse biological activity profile of triethylammonium isatin-3-hydrazones” (ADMET & DMPK, 2022).
# Read-outs that look alike come from different tables or passages of the source. Marks after values point to notes of the source that are not given here.
# How the values were obtained:
# [1] = tested on: Enterococcus faecalis ATCC 29212; experiment: Antimicrobial activity, serial dilution (MIC/MBC), Ef; type: cell-based; conditions: ATCC29212
# Description: The antimicrobial activity of the test compounds was determined by the serial dilution technique in Muller Hinton Broth 2 and in Sabouradu broth for fungi. The cultures used for testing included Gram-positive bacteria: Staphylococcus aureus ATCC 6538P FDA 209P, Bacillus cereus ATCC 10702 NCTC 8035, Enterococcus faecalis ATCC 29212; Gram-negative bacteria: Escherichia coli ATCC 25922, Pseudomonas aeruginosa ATCC 9027, and fungi: Trichophyton mentagrophytes var. gypseum 1773, and Candida albicans ATCC 10231; methicillin-resistant strains of S. aureus (MRSA) was obtained from hospital patients with chronic tonsillitis in the Republican Clinical Hospital (Kazan, Russia). The bacterial load was 3.0 × 10^5 cfu/ml. The fungi load was 2.0 × 10^3 cfu/ml. The results were recorded every 24 h for 5-7 days. Cultures were incubated at 37 °C. The experiment was repeated three times. […] The minimum inhibitory concentration (MIC) was defined as the minimum concentration of a compound that inhibits the growth of the corresponding test microorganism. The growth of bacteria, as well as the absence of the growth due to the bacteriostatic action of compounds, were recorded.
# Synthesized compounds were further evaluated for antimicrobial activity against test microorganisms: Staphylococcus aureus ATCC 209p (Sa), Bacillus cereus ATCC 8035 (Bc), Escherichia coli CDC F-50 (Ec), Enterococcus faecalis (Ef), Pseudomonas aeruginosa ATCC 9027, Aspergillus niger BKMF-1119, Trichophyton mentagrophytes var. gypseum 1773, and Candida albicans 855-653 including methicillin-resistant strains of S. aureus (MRSA 1 and MRSA 2). The minimum inhibitory (MIC) and minimum bactericidal (MBC) concentrations of ammonium salts were determined against these pathogens (Table 1). Due to the lack of activity of compounds 3a-g against Gram-negative bacterial strains and some fungi, the corresponding data are not shown.
# [2] = tested on: platelets (ADP-induced aggregation); experiment: Platelet aggregation (Born method), ADP-induced; type: cell-based; conditions: Homo sapiens, ADP 20 μg/mL, final concentration 2×10^–3 mol/L, median (25-75 percentiles), read-out: Platelets aggregation, % of control, ADP
# Description: (§1) The in vitro experiments were performed using the blood of healthy male donors aged 18-24 years (total 54 donors). The study was approved by the Ethics Committee of Federal State Budgetary Educational Institution of Higher Education at the Bashkir State Medical University of the Ministry of Health of Russian Federation (No.2 dated 17.10.2012). Informed consent was obtained from all participants before blood sampling. The blood was collected from the cubital vein using the system of vacuum blood collection BD Vacutainer® (Becton, Dickinson and Company, USA). A 3.8 % sodium citrate solution in a 9:1 ratio was used as a venous blood stabiliser. The study of the effect on platelet aggregation was performed using the Born method using the aggregometer «AT-02» (SPC Medtech, Russia). The assessment of antiplatelet activity of the studied compounds and reference preparations was started with the final concentration of 2×10^–3 mol/L. Adenosine diphosphate (ADP; 20 μg/mL) and collagen (5 mg/mL) manufactured by Tehnologia-Standart Company, Russia, were used as inducers of aggregation. The study on the anticoagulant activity was performed by standard recognised clotting tests using the optical two-channel automatic analyser of blood coagulation Solar CGL 2110 (CJSC SOLAR, Belarus). The following parameters were studied: activated partial thromboplastin time (APTT), prothrombin time (PT) and fibrinogen concentrations according to the Clauss method. The determination of anticoagulant activity of the studied compounds and reference preparation was performed in a concentration of 5×10^–4 g/mL using the reagents manufactured by Tehnologia-Standart Company (Barnaul, Russia). The results of the study were processed using the statistical package Statistica 10.0 (StatSoft Inc, USA). The Shapiro–Wilk’s test was used to check the normality of actual data distribution. The form of distribution of the data obtained differed from the normal one; therefore, non-parametric methods were used for further analysis. The data were presented as medians and 25 and 75 percentiles. Analysis of variance was conducted using Kruskal–Wallis test. A p value of 0.05 was considered statistically significant.
# [3] = tested on: platelets (collagen-induced aggregation); experiment: Platelet aggregation (Born method), collagen-induced; type: cell-based; conditions: Homo sapiens, collagen 5 mg/mL, final concentration 2×10^–3 mol/L, median (25-75 percentiles), read-out: Platelets aggregation, % of control, Collagen
# Description: as §1
# [4] = tested on: activated partial thromboplastin time (intrinsic coagulation pathway); experiment: Anticoagulant activity, clotting test APTT; design: species or system human; conditions: for APTT, % of control: concentration 5×10^–4 g/mL, median (25-75 percentiles); for anticoagulant activity: APTT, p<0.05
# Description: as §1
# [5] = tested on: Xanthomonas campestris B-610; experiment: Bactericidal activity, agar diffusion, X. campestris; type: cell-based; conditions: Xanthomonas campestris, B610, 2 mM/L
# Text: Plant pathogenic bacterial strains Micrococcus luteus B-109, Pectobacterium atrosepticum 1043, Pectobacterium carotovorum subsp. carotovorum MI, Pseudomonas fluorescens EL-2.1, and Xanthomonas campestris B-610 and fungal strain Fusarium oxysporum IBPPM 543 were obtained from the specialized scientific culture collection of IBPPM RAS (WFCC no. 975, WDCM no. 1021) (CM IBPPM). Pathogenic fungus Phytophthora cactorum VKM F-985 provided by the All-Russian Collection of Microorganisms (VKM) and deposited at A.E. Favorsky Irkutsk Institute of Chemistry, SB RAS, was also used as test organism. Bacteria M. luteus, P. carotovorum subsp. carotovorum, P. atrosepticum, and Ps. fluorescens were grown in meat-peptone medium (BP), and X. campestris was grown in the medium with glucose, yeast extract, and calcium carbonate (GYCa). Solid media contained Bacto agar (18 g/L); pH was adjusted to 7.2-7.4. All bacterial cultures were grown at 28°C. The mycelial cultures of F. oxysporum and P. cactorum were grown on a glucose-peptone-yeast (GPY) nutrient medium at 27 °C. For inoculum preparation, both fungal strains were initially grown on the agar GPY in Petri dishes and then transferred into the seed medium by punching out 5 mm of the agar plate culture with a self-designed cutter.
# Antibacterial and antifungal activities of the compounds were explored using the agar diffusion method and the technique of a phytopathogen radial growth inhibition. Method of diffusion in agar (measuring the diameter of growth inhibition zones) was used for determining the bactericidal activity. The 6-mm wells were made in ager medium (GYCa for Xanthomonas campestris or BP for other bacteria). Bacterial suspensions were distributed over the agar surface, and the tested compound's solution (150 μl) was added to each well. The width of growth inhibition zones around the wells was determined after incubation for 36-40 h.
# The solutions of tested compounds were prepared with a concentration of 2 mmol/l (stock solution). For comparison, test compounds were also commonly applied disinfecting agents and antibiotics.
# [6] = 150 μl per well, 36-40 h, read-out: width of the inhibition zone
# [7] = read-out: Inhibition zone width (mm), not less
Compound,MIC [1] [µM],MBC [1] [µM],inhibition at 2000 µM [2] [%],inhibition at 2000 µM [3] [%],"APTT, % of control [4]","zone of inhibition at 2000 µM [5, 6] [mm]","zone of inhibition at 2000 µM [5, 7] [mm]",anticoagulant activity [4] [%]
"CC[N+](CC)(CC)CC(=O)N/N=C1\C(=O)N(Cc2cc(C(C)(C)C)c(O)c(C(C)(C)C)c2)c2ccccc21 [Compound 3a, 2-(2-(1-(3,5-Di-tert-butyl-4-hydroxybenzyl)-2-oxoindolin-3-ylidene)hydrazinyl)-N,N,N-triethyl-2-oxoethanammonium bromide]",> 500,> 500,10.5,9.4,"+5.2 (4.1-7.6) ^*, ^† % of control",10,≥ 10,–
"CCc1cccc2c1N(Cc1cc(C(C)(C)C)c(O)c(C(C)(C)C)c1)C(=O)/C2=N\NC(=O)C[N+](CC)(CC)CC [Compound 3c, 2-(2-(1-(3,5-Di-tert-butyl-4-hydroxybenzyl)-7-ethyl-2-oxoindolin-3-ylidene)hydrazinyl)-N,N,N-triethyl-2-oxoethanammonium bromide]",> 500,> 500,13.7,12.5,"+11.2 (7.9-13.1) ^*, ^† % of control",11,≥ 11,≥ 10
"CC[N+](CC)(CC)CC(=O)N/N=C1\C(=O)N(Cc2cc(C(C)(C)C)c(O)c(C(C)(C)C)c2)c2c1ccc(C)c2C [Compound 3d, 2-(2-(1-(3,5-Di-tert-butyl-4-hydroxybenzyl)-6,7-dimethyl-2-oxoindolin-3-ylidene)hydrazinyl)-N,N,N-triethyl-2-oxoethanammonium bromide]",49.6 ± 3.9,49.6 ± 3.9,9,8.5,+4.8 (3.7-6.9) ^‡ % of control,8,≥ 8,–
"CC[N+](CC)(CC)CC(=O)N/N=C1\C(=O)N(Cc2cc(C(C)(C)C)c(O)c(C(C)(C)C)c2)c2cccc(Br)c21 [Compound 3e, 2-(2-(1-(3,5-Di-tert-butyl-4-hydroxybenzyl)-4-bromo-2-oxoindolin-3-ylidene)hydrazinyl)-N,N,N-triethyl-2-oxoethanammonium bromide]",> 500,> 500,0.5,2.4,+3.2 (2.8-5.4) ^‡ % of control,11,≥ 11,–

# The next lines start with results.
MIC [1] [µM],Compound,MBC [1] [µM],inhibition at 2000 µM [2] [%],inhibition at 2000 µM [3] [%],"APTT, % of control [4]","zone of inhibition at 2000 µM [5, 6] [mm]","zone of inhibition at 2000 µM [5, 7] [mm]",anticoagulant activity [4] [%]
> 500,"CC[N+](CC)(CC)CC(=O)N/N=C1\C(=O)N(Cc2cc(C(C)(C)C)c(O)c(C(C)(C)C)c2)c2c(Br)cc(Cl)cc21 [Compound 3g, 2-(2-(1-(3,5-Di-tert-butyl-4-hydroxybenzyl)-5-chloro-7-bromo-2-oxoindolin-3-ylidene)hydrazinyl)-N,N,N-triethyl-2-oxoethanammonium bromide]",> 500,10.2,8.9,"+8.6 (6.1-10.9) ^*, ^† % of control",8,≥ 8,–
> 500,"CC[N+](CC)(CC)CC(=O)N/N=C1\C(=O)N(Cc2cc(C(C)(C)C)c(O)c(C(C)(C)C)c2)c2ccc([N+](=O)[O-])cc21 [Compound 3f, 2-(2-(1-(3,5-Di-tert-butyl-4-hydroxybenzyl)-5-nitro-2-oxoindolin-3-ylidene)hydrazinyl)-N,N,N-triethyl-2-oxoethanammonium bromide]",> 500,4.6,4.3,"+10.3 (8.5-12.7) ^*, ^† % of control",7.5,–,≥ 10
